Results from PMC8840560, “Naphthoquine: A Potent Broad-Spectrum Anti-Coronavirus Drug In Vitro” (Molecules, 2022).
Read-outs that look alike come from different tables or passages of the source.

Key:
[1] = tested on: SARS-CoV-2; design: method as in PMID 32194981, PMID 33995308; conditions: in vitro; read-out: IC50 anti-SARS-CoV-2 in vitro; cited from earlier work
[2] = tested on: HCoV-229E; assay: CPE inhibition assay, HCoV-229E-infected Huh7 cells; format: cell-based; conditions: for IC50: Human coronavirus 229E
[3] = tested on: SARS-CoV-2; assay: Time-of-addition assay against SARS-CoV-2 in Vero cells; format: cell-based; conditions: 10 µM, qRT-PCR at 48 h
[4] = tested on: SARS-CoV-2; assay: Anti-SARS-CoV-2 activity in Vero cells by qRT-PCR of viral RNA in supernatant; format: cell-based; conditions: Severe acute respiratory syndrome coronavirus 2; SARS-CoV-2 (100 TCID50) in Vero cells, qRT-PCR of supernatant RNA at 48 h, 12 h pretreatment
[5] = tested on: HCoV-OC43; assay: CPE inhibition assay, HCoV-OC43-infected H460 cells; format: cell-based; conditions: for IC50: Betacoronavirus 1, NCI-H460, HCoV-OC43 (100 TCID50) in H460 cells, CPE, about 72 h, Reed-Muench
[6] = in vitro; conditions: human, Huh7 cells
[7] = in vitro; conditions: human, H460 cells

CCN(CC)CCCC(C)Nc1ccnc2cc(Cl)ccc12 (stereo not shown) [CQ, Chloroquine phosphate]
IC50 [1]: < 10 µM | IC50 ([2]; Huh-7, 48 h): 8.74 ± 7.27 µM | inhibition of SARS-CoV-2 infection at all time points (full-time, first 3 h, last 46 h) [3]: effectively inhibit SARS-CoV-2 infection at all time points | IC50 [4]: 5.85 ± 0.97 µM | IC50 [5]: 3.16 ± 0.6 µM

CCN(CCO)CCCC(C)Nc1ccnc2cc(Cl)ccc12 (stereo not shown) [HCQ, hydroxychloroquine]
IC50 [1]: < 10 µM

NC(=O)c1ncn([C@@H]2O[C@H](CO)[C@@H](O)[C@H]2O)n1 [RBV, Ribavirin]
SI [2]: 26.54 | IC50 ([2]; Huh-7, HCoV-229E (100 TCID50) in Huh7 cells, CPE, about 48 h, Reed-Muench, read-out: IC50): 15.4 ± 5.57 µM | CC50 at 2 days [6]: 409 µM | CC50 at 2 days [7]: 318 µM | SI [5]: 15.34 | IC50 [5]: 20.7 ± 7.86 µM

OC(c1cc(C(F)(F)F)nc2c(C(F)(F)F)cccc12)C1CCCCN1 (stereo not shown) [mefloquine]
IC50 [1]: < 10 µM
